Measured values as given in US20070203060A1, “Casein Derived Peptides And Therapeutic Uses Thereof” (priority 2004, published 2007).
Where “and” joins values, the source holds several entries; their conditions need not be identical. Equal entries are not always repeated.

How the values were obtained:
[1] = test system: peripheral white blood cells of myeloablated, bone marrow transplanted mice; assay: Leukocyte reconstitution in irradiated bone marrow transplant recipient mice; assay type: in vivo, mouse; details: BALB/c, 600 cGy, 1 mg per mouse i.p.
[2] = test system: Juvenile (Type I, IDDM) diabetes in NOD mice; assay: Glucosuria in Non-Obese Diabetic (NOD) mice; assay type: in vivo, mouse; details: three injections of 1 mg each, 3 days apart, at 25 weeks
Experimental: Juvenile (Type I, IDDM) diabetes in Non-Obese Diabetic (NOD) mice:
Peptides derived from natural casein: NOD mice are a commonly used model for research of autoimmune disease and human Juvenile Diabetes. Six week old female NOD mice received either one or two injections per week of 100 μg of peptides derived from natural casein, for a total of 5 or 10 treatments. Control mice received no treatment. The severity of disease was determined according to glucosuria, which was measured using Combi test sticks [Gross, D. J. et al. (1994), Diabetology, 37:1195]. Results were expressed as the percent of glucosuria-free mice in each sample over a 365-day period.
Synthetic peptides derived from casein: In another experiment, 6 week old female NOD mice received two injections per week of 100 μg of Synthetic peptides derived from casein for a total of 10 treatments, or three injections of 1 mg each, 3 days apart, for a total of 3 treatments. Control mice received no treatment. Results were expressed as the number of healthy mice in the various treated groups.

[3] = test system: glucose metabolism in NOD mice; assay: Intraperitoneal Glucose Tolerance Test (IPGTT) in NOD mice; assay type: in vivo, mouse; details: NOD mice, three injections of 1 mg each, 3 days apart; 25 weeks
Experimental: Intraperitoneal Glucose Tolerance Test (IPGTT): The glucose tolerance test is the definitive method for investigating glucose metabolism and diabetic tendencies in mammals. Twenty five (25) weeks after receiving Synthetic peptides derived from casein, response to a glucose load was assessed with an intraperitoneal glucose tolerance test. Glucose injection consisted of 1 g/kg body weight. Glycemic values were determined from blood drawn prior to test (0 minutes) and 60 minutes after loading.

[4] = test system: murine primary bone marrow cells (CFU-GEMM); assay: Multipotential colonies (CFU-GEMM) from murine bone marrow cells, colony and differential counts; assay type: cell-based, mouse; details: 8 days treatment
Experimental: Proliferation of megakaryocytes in multipotential colonies (CFU-GEMM) from murine Bone Marrow cells: Primary bone marrow cells (1×10^5 per ml) from 8-12 week-old C3H/HeJ mice were grown in serum-free methyl cellulose-IMDM medium for 8-9 days at 5% CO2, 95% air, at 37° C. The medium, appropriate for the growth of multipotential colonies (CFU-GEMM), contained 1% BSA (Sigma), 10^−4 M thioglycerol (Sigma), 2.8×10^−4 M human transferrin (TF, Biological industries, Israel), 10% WEHI-CM as a source of IL-3 and 2 units per ml erythropoietin (rhEPO, R & D Systems, Minneapolis). […] They were picked with a micropipette, cytocentrifuged and stained with May-Grunwald-Giemsa for differential counts. At least 700 cells were counted for each preparation. […]

Row | Sequence | peripheral white blood cell count ([1]; day 10) | peripheral white blood cell count ([1]; day 12) | mice in which no glucosuria was detected [2] | blood glucose values in response to a glucose load (IPTG test) [3] | megakaryocyte formation and development (in words) [4]
1 | RPKHPIKHQGLPQEV [C] | 1.72 ×10^6 cells per ml | 6.54 ×10^6 cells per ml | 3 out of 5 | 101 and 113 and 102 | 
2 | RPKHPIKHQGLPQEVLNEN |  |  | two out of 5 | < 120 | significant increase
